The values that follow come from ChEMBL document CHEMBL1152108, “Dual metalloprotease inhibitors. II. Effect of substitution and stereochemistry on benzazepinone based mercaptoacetyls” (Bioorg Med Chem Lett, 1994).

Assay [1] deals with Neprilysin (Homo sapiens, UniProt P08473). The assay can be described thus: Inhibition of Neutral Endopeptidase (NEP). As to conditions: read-out: I50.
In assay [2] the target is Angiotensin-converting enzyme (Homo sapiens, UniProt P12821). The assay can be described thus: Inhibition of Angiotensin I converting enzyme. To be noted: read-out: I50.
Sequence of Angiotensin-converting enzyme (P12821 whole entry): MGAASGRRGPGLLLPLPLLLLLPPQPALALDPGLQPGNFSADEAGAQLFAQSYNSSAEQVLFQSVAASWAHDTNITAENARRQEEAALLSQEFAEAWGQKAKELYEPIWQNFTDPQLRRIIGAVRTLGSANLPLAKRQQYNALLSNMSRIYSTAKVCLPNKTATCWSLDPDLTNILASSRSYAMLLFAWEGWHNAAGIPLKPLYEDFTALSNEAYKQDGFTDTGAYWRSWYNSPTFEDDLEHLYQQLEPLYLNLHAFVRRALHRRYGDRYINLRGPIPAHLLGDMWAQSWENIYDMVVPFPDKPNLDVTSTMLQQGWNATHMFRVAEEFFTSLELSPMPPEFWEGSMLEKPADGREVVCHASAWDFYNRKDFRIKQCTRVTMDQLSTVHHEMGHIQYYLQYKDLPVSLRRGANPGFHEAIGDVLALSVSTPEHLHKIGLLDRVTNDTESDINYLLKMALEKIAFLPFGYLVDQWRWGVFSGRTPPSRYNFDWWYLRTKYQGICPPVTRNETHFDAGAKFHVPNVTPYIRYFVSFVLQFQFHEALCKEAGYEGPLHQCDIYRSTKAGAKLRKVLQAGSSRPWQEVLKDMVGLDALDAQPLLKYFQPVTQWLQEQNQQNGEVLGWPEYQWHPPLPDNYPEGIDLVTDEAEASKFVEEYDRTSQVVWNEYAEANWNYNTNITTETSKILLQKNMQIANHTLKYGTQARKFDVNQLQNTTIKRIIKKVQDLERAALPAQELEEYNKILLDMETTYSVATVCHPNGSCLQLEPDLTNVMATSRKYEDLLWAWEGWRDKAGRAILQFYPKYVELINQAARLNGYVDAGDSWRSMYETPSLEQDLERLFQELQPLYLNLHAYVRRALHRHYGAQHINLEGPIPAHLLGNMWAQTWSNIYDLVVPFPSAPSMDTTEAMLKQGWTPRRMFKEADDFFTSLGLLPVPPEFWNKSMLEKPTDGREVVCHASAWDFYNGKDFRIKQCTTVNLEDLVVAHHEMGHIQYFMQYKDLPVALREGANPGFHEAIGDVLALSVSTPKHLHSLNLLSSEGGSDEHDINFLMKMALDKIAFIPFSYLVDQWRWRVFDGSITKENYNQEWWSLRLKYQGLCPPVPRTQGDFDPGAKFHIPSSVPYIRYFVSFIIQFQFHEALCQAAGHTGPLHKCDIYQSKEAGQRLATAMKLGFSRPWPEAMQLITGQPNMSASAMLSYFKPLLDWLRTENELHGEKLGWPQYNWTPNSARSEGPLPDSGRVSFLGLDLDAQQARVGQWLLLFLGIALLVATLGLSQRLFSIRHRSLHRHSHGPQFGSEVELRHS
Assay [3] deals with Rattus norvegicus. Nature of the assay: Compound was tested in vivo for inhibition of Angiotensin I(AI) induced pressor response in normotensive rat after iv administration. Type of assay: functional.
Assay [4] deals with Rattus norvegicus. The assay can be described thus: Maximal percentage inhibition of Angiotensin I(AI) induced pressor response in normotensive rat at 0.15 (umol/kg) (iv). It is filed as functional.

Structures are written as SMILES.

Broadly, the ED50 is the dose that gives a 50% effect, or the effect in half of the subjects. Read a low ED50 as greater potency. The Inhibition is the drop in the measured response relative to a control, in per cent. The low end stands for little suppression, the high end for strong suppression.

Sequence of Neprilysin (P08473 whole entry): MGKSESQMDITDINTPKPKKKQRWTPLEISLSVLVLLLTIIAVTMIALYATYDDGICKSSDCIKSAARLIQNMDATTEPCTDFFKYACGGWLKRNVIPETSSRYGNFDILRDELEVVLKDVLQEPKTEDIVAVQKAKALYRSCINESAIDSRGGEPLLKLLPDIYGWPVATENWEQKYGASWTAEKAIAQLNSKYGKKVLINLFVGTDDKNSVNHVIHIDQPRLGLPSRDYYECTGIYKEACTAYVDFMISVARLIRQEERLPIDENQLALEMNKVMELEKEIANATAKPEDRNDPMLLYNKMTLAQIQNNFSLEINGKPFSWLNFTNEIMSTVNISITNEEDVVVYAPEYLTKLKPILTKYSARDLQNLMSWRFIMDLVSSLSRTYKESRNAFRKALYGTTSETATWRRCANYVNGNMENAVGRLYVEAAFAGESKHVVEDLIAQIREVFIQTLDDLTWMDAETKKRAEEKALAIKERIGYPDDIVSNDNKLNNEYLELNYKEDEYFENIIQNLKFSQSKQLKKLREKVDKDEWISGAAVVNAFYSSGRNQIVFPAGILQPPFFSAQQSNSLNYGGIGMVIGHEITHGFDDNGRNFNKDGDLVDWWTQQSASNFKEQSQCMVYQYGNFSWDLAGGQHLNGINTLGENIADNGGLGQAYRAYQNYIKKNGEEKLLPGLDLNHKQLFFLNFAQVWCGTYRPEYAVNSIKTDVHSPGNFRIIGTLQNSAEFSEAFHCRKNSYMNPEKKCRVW

For the molecule `O=C(O)CN1CCCC[C@H](NC(=O)[C@@H](S)Cc2ccccc2)C1=O`, the IC50 came to 82 nM in assay [1] and 22 nM in assay [2]. Further, the ED50 in assay [3] was 0.83 µmol/kg.
`O=C(O)CN1C(=O)[C@@H](NC(=O)[C@@H](S)CC2CCCCC2)CCc2ccccc21`: the IC50 in assay [1] was 4260 nM; in assay [2], 22 nM.
`O=C(O)CN1C(=O)[C@@H](NC(=O)[C@@H](S)Cc2ccccc2)CCc2ccccc21`: the IC50 in assay [1] came to 6 nM. The molecule also returned an ED50 in assay [3] of 0.02 µmol/kg.
Take `CCCC[C@H](S)C(=O)N[C@H]1CCc2ccccc2N(CC(=O)O)C1=O`: the IC50 amounted to 36 nM in assay [1] and 5.4 nM in assay [2]. Also, the median effective dose (ED50) in assay [3] is 0.06 µmol/kg.
Take `C[C@H](NC(=O)[C@@H](S)Cc1ccccc1)C(=O)N(CC(=O)O)c1ccccc1`: the IC50 in assay [1] came to 137 nM; in assay [2], 14 nM. Moreover, the median effective dose (ED50) in assay [3] amounted to 0.15 µmol/kg. Further, the Inhibition in assay [4] came to 42%.
Turning to `CC(C)C[C@H](S)C(=O)N[C@H]1CCc2ccccc2N(CC(=O)O)C1=O`, the results for the IC50 in assay [1] and in assay [2] were 7 nM and 6.3 nM, respectively. In assay [3], this molecule had an ED50 of 0.23 µmol/kg.
Regarding `O=C(O)CN1C(=O)[C@@H](NC(=O)[C@H](S)Cc2ccccc2)CCc2ccccc21`, the IC50 in assay [1] came to 14 nM; in assay [2], 284 nM.
As for `O=C(O)CN1C(=O)[C@H](NC(=O)[C@@H](S)Cc2ccccc2)CCc2ccccc21`, the values for the IC50 in assay [1] and in assay [2] were 560 nM and 306 nM, respectively.
On the same counts, the results for `C[C@H](S)C(=O)N[C@H]1CCc2ccccc2N(CC(=O)O)C1=O` are 1850 nM and 24 nM.
For `O=C(O)CN1C(=O)C(NC(=O)[C@@H](S)Cc2ccccc2)CCCc2ccccc21` (stereo partly specified) the same measures were 1120 nM and 25 nM.
For `O=C(O)CN1Cc2ccccc2C[C@H](NC(=O)[C@@H](S)Cc2ccccc2)C1=O` the same measures were 175 nM and 33 nM.
For `CC(S)(Cc1ccccc1)C(=O)N[C@H]1CCc2ccccc2N(CC(=O)O)C1=O` (stereo in doubt; form 1), the results for the IC50 in assay [1] and in assay [2] were 865 nM and 183 nM, respectively.
On the same counts, the results for `CC(S)(Cc1ccccc1)C(=O)N[C@H]1CCc2ccccc2N(CC(=O)O)C1=O` (stereo in doubt; form 2) are 2000 nM and 63 nM.
